Measurements published in patent publication EP0531640B1, “Antibiotic LL-E19020 Gamma” (F. HOFFMANN-LA ROCHE AG, priority 1991, dated 1993).

Test: Growth of chickens and efficiency of feed utilization
Assay type: in vivo, Peterson X Arbor Acres chicks
Details: chicks, 200 ppm in the diet (positive control), day 1 to day 14
Method: In this test, one day old Peterson X Arbor Acres chicks are sorted into equal weight groups of 5 males and 5 females per cage. Cages are randomized to treatment groups with six replicates per treatment. The test compound is evaluated 25 ppm in the diet against chicks receiving a non-medicated diet and a diet containing 200 ppm of penicillin as a positive control.
The cages are weighed at day 1 and at day 14 and feed consumption is measured on weigh days. Feed and water are offered ad libitum and lighting and supplemental heat are provided continuously.
The poultry diet employed in the test is as follows:
The vitamin-amino acid premix in the above feed composition is prepared from the following formulation. The expressions of quantity relate to units per kilogram of the finished feed composition.

Substance: Penicillin [reference compound]
- Weight Gain: 344 g
- Weight Gain, % improvement over control: 7.2%
- feed conversion: 1.317
- feed conversion, % improvement over control: 0.4%
